# In PubChem BioAssay AID720669 (NMMLSC, 2013):
# Activity calls are given as the source filed them.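 The calls were made as follows: active = visibly stopped the calcineurin reporter band on a blot from moving down to a smaller size, judged by eye; inactive = reporter band movement visibly unaltered.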
# System: calcineurin (human, NFAT-based CaNAR1 reporter dephosphorylation)
# Test: inhibitors of CaNAR1 reporter dephosphorylation – TALL-104 cells, western blot, CherryPick01, mechanism study for lytic granule exocytosis inhibitor project (AID 720669)
# Conditions: CaNAR1 dephosphorylation shift, at 12 µM, active compounds read high
row,SMILES,inhibition
1,COc1ccc(-n2sc3ccccc3c2=O)cc1,0% (inactive)
2,Cc1ccc(S(=O)(=O)n2ccc3c(OCCOCCNCc4ccc(F)cc4)cccc32)cc1,0% (inactive)
3,O=c1c2ccccc2sn1-c1ccccc1,0% (inactive)
4,COc1ccc(-c2cc(NC=O)c3ncc(-c4cccc(OC)c4)n3c2)cc1,0% (inactive)
5,CCCCC[C@@H](C)N1C[C@@H](COCc2ccccc2)Oc2cc(N3CC[C@@H](N(C)C)C3)ccc2S1(=O)=O,0% (inactive)
6,CCCCC[C@@H](C)N1C[C@@H](COCc2ccccc2)Oc2cc(N3CC[C@H](N(C)C)C3)ccc2S1(=O)=O,0% (inactive)
7,CC1COCC(C)N1C1=C(Cl)C(=O)c2ccccc2C1=O (configuration not stated),100%
8,COc1ccc(N2C(=O)CC(Sc3nnc(-c4ccccc4)o3)C2=O)cc1 (configuration not stated),0% (inactive)
9,O=C(Cn1sc2ccccc2c1=O)Nc1ccc(F)cc1,0% (inactive)
10,CC1=NOC(=O)/C1=C/c1ccc(-c2ccc(Cl)cc2)o1,0% (inactive)
11,COc1ccccc1CNc1nc(NCc2ccc(C(C)C)cc2)c2sccc2n1,0% (inactive)
12,O=CNc1cc(-c2ccsc2)cn2c(-c3ccccc3)cnc12,0% (inactive)
13,CCCCC[C@@H](C)N1C[C@H](COCc2ccccc2)Oc2cc(N3CC[C@@H](N(C)C)C3)ccc2S1(=O)=O,0% (inactive)
14,CCN(CC)CCCNc1ccc(-c2nnc(-c3ccc(OCC(C)C)cc3)o2)cn1,0% (inactive)
15,CC(C)(c1ccccc1)c1ccc(OCC(O)CNC2CCN(Cc3ccccc3)CC2)cc1 (configuration not stated),0% (inactive)
16,Cc1ccc(Nc2nc(NCc3ccco3)c3ccccc3n2)cc1,0% (inactive)
17,COC(=O)c1c(NC(=O)c2nc3ccccc3s2)sc2c1CC(C)(C)NC2(C)C,0% (inactive)
18,COc1ccc(-c2cc(NC=O)c3ncc(-c4ccccc4)n3c2)cc1OC,0% (inactive)
19,O=C(Cn1sc2ccccc2c1=O)NC12CC3CC(CC(C3)C1)C2,0% (inactive)
20,O=C(CN1C(=O)/C(=C\c2cccc(Br)c2)Oc2ccccc21)NCCCN1CCOCC1,0% (inactive)
21,CN(C)CCNC(=O)c1ccc(-c2cn3c(-c4ccc(Oc5ccccc5)cc4)cnc3cn2)cc1,0% (inactive)
22,O=c1c2ccc(F)cc2sn1-c1ccccc1,0% (inactive)
